# Results from patent US20090149452A1, “XANTHINE OXIDASE INHIBITOR” (NIPPON CHEMIPHAR CO., LTD., priority 2005, published 2009).
# Tests used:
# [1] = target: T1, Cow milk Xanthine Oxidase (Bos taurus, UniProt P80457); experiment: In vitro xanthine oxidase inhibition (oxidation of xanthine, absorbance at OD 290 nm); assay type: biochemical; conditions: xanthine 250 μM, 50 mM phosphate buffer pH 7.5, 30° C. 10 minutes
# T1 construct: Cow milk Xanthine Oxidase (Roche); purchased Roche; host or cells: cow milk
# Method: The xanthine oxidase inhibiting action (in vitro test) of the compound of the invention was confirmed by measuring inhibition of oxidation of xanthine by xanthine oxidase, as described in Example 26. As is clear from Tables 11 and 12, the compounds of the invention show excellent xanthine oxidase inhibiting action.
# The test compound was dissolved in dimethylsulfoxide and diluted with 50 mM phosphate buffer (pH 7.5), to give a solution of a predetermined concentration.
# 125 μL of each of the solutions of the test compound having different concentrations was added to 1 mL of a solution of Xanthine (SIGMA, 250 μM) in the 50 mM phosphor buffer (pH 7.5). The mixture was then pre-incubated at 30° C. for 5 min. Subsequently, to the pre-incubated mixture was added 125 μL of Cow milk Xanthine Oxidase (Roche) diluted with the 50 mM phosphate buffer (pH 7.5) to 70 mU/mL, and the mixture was subjected to reaction at 30° C. for 10 minutes. Then, 1N hydrochloric acid (200 μL) was added to the reaction mixture to terminate the reaction. Subsequently, absorbance at OD 290 nm was measured by means of a spectrophotometer (Shimadzu UV-160A), to obtain a inhibition ratio. The measured inhibition ration was used to obtain IC50.
# The inhibition ratio was calculated according to the following formula:
# Inhibition ratio (%)=[1−(B−C)/(A−C)]×100 • A: absorbance of control • B: absorbance measured on a sample containing test compound • C: absorbance of blank
# [2] = tested on: in-plasma uric acid value; experiment: In vivo test: in-plasma uric acid value-inhibition ratio after single oral administration to mouse; conditions: in-plasma uric acid inhibition ratio as activity value relative to TMX-67 (0.3 mg/kg); unfasted ICR mouse, single oral 0.3 mg/kg or 3 mg/kg, blood one hour after administration
# Method: The xanthine oxidase inhibiting action was further confirmed in viva tests by measuring the uric acid concentration in a plasma obtained from mouse into which the compound of the invention had been orally administered. See Example 27 and Tables 11 and 12. The test compound suspended in 1% methylcellulose solution in an amount of 0.3 mg/kg or 3 mg/kg was administered to unfasted ICR mouse (7 W) by forced single oral administration. The blood was collected from main artery from the mouse under etherization after one hour from the administration. The plasma was separated from the collected blood in the conventional manner. The plasma was then subjected to measurement of uric acid value by the enzyme method by means of an automatic analytical apparatus ([…]), to obtain an in-plasma uric acid value-inhibition ratio in the test sample-administered group as compared with a ratio obtained in the normal group. Based on the obtained in-plasma uric acid inhibition ratio, activity values (%) relative to activity values obtained in the simultaneously conducted tests using TMX-67 (0.3 mg/kg).
# T1 sequence (P80457 whole entry): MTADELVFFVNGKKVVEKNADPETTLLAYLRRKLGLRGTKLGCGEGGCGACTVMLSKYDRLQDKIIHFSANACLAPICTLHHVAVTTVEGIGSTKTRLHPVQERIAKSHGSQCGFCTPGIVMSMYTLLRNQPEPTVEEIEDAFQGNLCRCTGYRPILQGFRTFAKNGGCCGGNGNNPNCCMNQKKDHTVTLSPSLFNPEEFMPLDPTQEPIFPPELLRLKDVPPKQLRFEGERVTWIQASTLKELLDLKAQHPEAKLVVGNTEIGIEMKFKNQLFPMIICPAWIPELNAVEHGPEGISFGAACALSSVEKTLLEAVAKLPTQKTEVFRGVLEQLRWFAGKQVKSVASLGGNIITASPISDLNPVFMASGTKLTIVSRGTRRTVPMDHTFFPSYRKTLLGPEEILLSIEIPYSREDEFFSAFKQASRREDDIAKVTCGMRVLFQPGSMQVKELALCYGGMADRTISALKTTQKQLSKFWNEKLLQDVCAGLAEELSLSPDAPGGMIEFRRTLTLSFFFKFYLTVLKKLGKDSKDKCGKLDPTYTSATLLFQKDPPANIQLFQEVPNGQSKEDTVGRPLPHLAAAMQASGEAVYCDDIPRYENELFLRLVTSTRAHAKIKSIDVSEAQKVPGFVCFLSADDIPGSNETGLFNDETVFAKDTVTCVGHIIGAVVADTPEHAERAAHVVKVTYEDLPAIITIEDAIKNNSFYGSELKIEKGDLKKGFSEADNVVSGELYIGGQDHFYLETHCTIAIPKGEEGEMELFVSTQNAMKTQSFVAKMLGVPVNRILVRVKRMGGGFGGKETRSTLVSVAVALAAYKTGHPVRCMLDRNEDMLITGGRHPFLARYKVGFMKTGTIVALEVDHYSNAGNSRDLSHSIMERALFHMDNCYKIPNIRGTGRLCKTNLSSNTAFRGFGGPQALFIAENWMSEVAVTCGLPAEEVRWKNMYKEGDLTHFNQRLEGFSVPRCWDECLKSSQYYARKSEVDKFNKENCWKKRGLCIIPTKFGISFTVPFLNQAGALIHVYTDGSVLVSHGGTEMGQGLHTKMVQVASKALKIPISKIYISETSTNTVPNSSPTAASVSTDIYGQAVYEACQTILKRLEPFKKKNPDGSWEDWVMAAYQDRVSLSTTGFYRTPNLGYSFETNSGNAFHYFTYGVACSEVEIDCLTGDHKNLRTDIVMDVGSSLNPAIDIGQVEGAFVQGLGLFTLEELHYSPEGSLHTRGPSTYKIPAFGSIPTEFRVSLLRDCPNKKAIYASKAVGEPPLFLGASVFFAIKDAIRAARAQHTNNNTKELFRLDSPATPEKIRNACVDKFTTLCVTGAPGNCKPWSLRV
SMILES,IC50 [1],melting point,In Vivo (%) TMX-67 (0.3 mg/kg) [2]
"N#Cc1cc(-c2nc3cncnc3s2)ccc1Sc1ccccc1F [Example 10, 2-[3-Cyano-4-(2-fluorophenylthio)phenyl]-thiazolo[5,4-d]pyrimidine]",127 nM,178 to 180 °C,115%
"N#Cc1cc(-c2nc3cncnc3s2)ccc1Oc1ccc(O)cc1 [Example 22, 2-[3-Cyano-4-(4-hydroxyphenoxy)phenyl]thiazolo[5,4-d]pyrimidine]",72 nM,> 250 °C,–
"N#Cc1cc(-c2nc3cncnc3s2)ccc1Oc1ccc(F)cc1 [Example 1, 2-[4-(4-fluorophenoxy)-3-cyanophenyl]thiazolo[5,4-d]pyrimidine]",280 nM,175 to 177 °C,132%
"N#Cc1cc(-c2nc3cncnc3s2)ccc1Oc1ccc(O)cc1.[K] [Example 25, 2-[3-Cyano-4-(4-hydroxyphenoxy)phenyl]thiazolo[5,4-d]pyrimidine potassium salt]",–,–,35%
"N#Cc1cc(-c2nc3cncnc3s2)ccc1Oc1ccc(Cl)cc1 [Example 9, 2-[4-(4-Chlorophenyloxy)-3-cyanophenyl]-thiazolo[5,4-d]pyrimidine]",298 nM,179 to 180 °C,120%
"N#Cc1cc(-c2nc3cncnc3s2)ccc1Oc1ccccc1N [Example 20, 2-[4-(2-Aminophenoxy)-3-cyanophenyl]thiazolo[5,4-d]-pyrimidine]",58 nM,256 to 259 °C (dec.),–
"N#Cc1cc(-c2nc3cncnc3s2)ccc1Oc1ccccc1F [Example 5, 2-[3-Cyano-4-(2-fluorophenoxy)phenyl]-thiazolo[5,4-d]pyrimidine]",103 nM,195 to 196 °C,141%
"N#Cc1cc(-c2nc3cncnc3s2)ccc1Oc1ccccc1O [Example 8, 2-[3-Cyano-4-(2-hydroxyphenoxy)phenyl]thiazolo[5,4-d]pyrimidine]",103 nM,255 to 256 °C,52%
"N#Cc1cc(-c2nc3cncnc3s2)ccc1Oc1cccc(F)c1 [Example 6, 2-[3-Cyano-4-(3-fluorophenoxy)phenyl]-thiazolo[5,4-d]pyrimidine]",389 nM,189 to 190 °C,127%
"N#Cc1cc(-c2nc3cncnc3s2)ccc1Oc1cccc(Cl)c1 [Example 15, 2-[4-(3-Chlorophenyloxy)-3-cyanophenyl]-thiazolo[5,4-d]pyrimidine]",–,171 to 173 °C,87%
"N#Cc1cc(-c2nc3cncnc3o2)ccc1Oc1ccc(F)cc1 [Example 18, 2-[3-Cyano-4-(4-fluorophenoxy)phenyl]oxazolo[5,4-d]-pyrimidine]",–,–,71%
"N#Cc1cc(-c2nc3cncnc3[nH]2)ccc1Oc1ccc(F)cc1 [Example 4, 8-[3-Cyano-4-(4-fluorophenoxy)phenyl]-9H-purine]",33 nM,> 250 °C,33%

# Now from value to compound, other results behind:
IC50 [1],melting point,SMILES,In Vivo (%) TMX-67 (0.3 mg/kg) [2]
273 nM,210 to 212 °C,"N#Cc1cc(-c2nc3cncnc3s2)ccc1Oc1cccnc1 [Example 3, 2-[3-Cyano-4-(3-pyridyloxy)phenyl]thiazolo-[5,4-d]pyrimidine]",90%
310 nM,202.6 to 207.6 °C,"C=CCOc1ccc(-c2nc3cncnc3s2)cc1C#N [Example 12, 2-(4-Allyloxy-3-cyanophenyl)thiazolo[5,4-d]-pyrimidine]",52%
–,163 to 165 °C (dec.),"CN1CCN(c2ccc(-c3nc4cncnc4s3)cc2C#N)CC1 [Example 14, 2-[3-Cyano-4-(4-methyl-1-piperazinyl)phenyl]thiazolo[5,4-d]pyrimidine]",43%
–,232 to 234 °C (dec.),"N#Cc1cc(-c2nc3cncnc3s2)ccc1N1CCOCC1 [Example 13, 2-(3-Cyano-4-morpholin-4-ylphenyl)thiazolo-[5,4-d]pyrimidine]",40%
196 nM,173 to 176 °C,"N#Cc1cc(-c2nc3cncnc3s2)ccc1Sc1ccccc1 [Example 11, 2-(3-Cyano-4-phenylthiophenyl)thiazolo[5,4-d]pyrimidine]",110%
–,204 to 206 °C,"Cl.N#Cc1cc(-c2nc3cncnc3s2)ccc1Oc1cccnc1 [Example 21, 2-[3-Cyano-4-(3-pyridyloxy)phenyl]thiazolo-[5,4-d]pyrimidine hydrochloride]",68%
–,209 to 211 °C,"N#Cc1cc(-c2nc3cncnc3s2)ccc1Oc1ccccc1Cl [Example 17, 2-[4-(2-Chlorophenyloxy)-3-cyanophenyl]thiazolo[5,4-d]pyrimidine]",86%
239 nM,190 to 195 °C,"N#Cc1cc(-c2nc3cncnc3s2)ccc1Sc1ccc(F)cc1 [Example 7, 2-[3-Cyano-4-(4-fluorophenylthio)phenyl]-thiazolo[5,4-d]pyrimidine]",109%
–,170 to 175 °C (dec.),"N#Cc1cc(-c2nc3cncnc3s2)ccc1N1CCSCC1 [Example 16, 2-[3-Cyano-4-(thiomorpholin-4-yl)phenyl]-thiazolo[5,4-d]pyrimidine]",34%
139 nM,154 to 156 °C,"N#Cc1cc(-c2nc3cncnc3s2)ccc1Oc1ccccc1 [Example 2, 2-[3-Cyano-4-phenoxyphenyl)thiazolo[5,4-d]-pyrimidine]",114%
–,189 to 190 °C,"N#Cc1cc(-c2nc3cncnc3s2)ccc1Sc1cccc(F)c1 [Example 19, 2-[3-Cyano-4-(3-fluorophenylthio)phenyl]-thiazolo[5,4-d]pyrimidine]",171%
